Converted amounts (≈) assume the structure as drawn. Where two headings read alike, the source gives them in different places.
Assays:
[1] = Cytotoxicity MTT assay (TOX HELAM); type: cell-based; details: human, HelaM cells, read-out: TOX HELAM (222.125) CC50
Procedure: Cytotoxicity of the compounds was evaluated using the MTT assay. Human HelaM cells grown in 96-well plates were exposed to serial dilutions of the tested compounds (final volume of 0.2 ml) and incubated for 72 hours at 37° C. and 5% CO2. Inhibitors are typically varied over the range of 25 to 0.8 μM. The final DMSO concentration in the assay is 0.5%. MTT (3-(4,5-Dimethylthiazol-2-yl)-2,5-diphenyltetrazolium bromide, a tetrazole) was added and reduced to purple formazan only in living cells. Solubilization of the formazan crystals was achieved by adding 100 μl 2-propanol. Cell viability was determined by measuring the absorbance of the reduced formazan, giving a purple color, at 540 nm and 690 nm. The absorbance measured at 690 nm was automatically subtracted from the absorbance at 540 nm, to eliminate the effects of non-specific absorption. The percent cytotoxicity achieved by the compounds was calculated according to standard methods. Cytotoxicity is reported as CC50, the concentration that causes a 50% reduction in cell viability.
The results are depicted in the table D2 below (TOX HELAM).

[2] = target: T1, S. aureus ATCC 29213 FabI (Staphylococcus aureus, UniProt Q6GI75); assay: Staphylococcus aureus FabI enzyme inhibition assay; type: biochemical; details: 30 minutes at room temperature, NADH consumption
T1 sequence (Q6GI75 1-256): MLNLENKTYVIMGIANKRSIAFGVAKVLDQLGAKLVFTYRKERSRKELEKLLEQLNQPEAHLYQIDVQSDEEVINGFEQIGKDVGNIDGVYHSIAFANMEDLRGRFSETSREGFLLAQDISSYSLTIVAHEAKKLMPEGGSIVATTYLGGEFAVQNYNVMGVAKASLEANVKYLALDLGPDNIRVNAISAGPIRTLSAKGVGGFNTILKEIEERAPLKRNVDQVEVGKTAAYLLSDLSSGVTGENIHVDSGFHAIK
Procedure: FabI enzyme inhibition assays were carried out in half-area, 384-well microtitre plates. Compounds were evaluated in 40-μl assay mixtures containing 100 mM NaADA, pH 6.5 (ADA=N-[2-acetamido]-2iminodiacetic acid), 250 μM crotonoyl-CoA, 625 μM NADH and 50 μg/ml S. aureus ATCC 29213 FabI Inhibitors were typically varied over the range of 50 to 0.39 μM. The reaction mixtures were incubated for 30 minutes at room temperature and the reaction was stopped by adding 200 mM Tris buffer (pH 9.0) to create a pH-shift. The consumption of NADH was monitored by measuring the change in absorbance at […]. By comparing sample readings to those of negative (absence of compound) and positive (absence of enzyme) controls, the percent inhibition of enzymatic activity of the compounds was determined. A best-fit curve is fitted by a minimum of squares method. From this an IC50-value (expressed in μg/ml), resulting in 50% inhibition of enzymatic activity, was obtained.

[3] = tested on: M. catarrhalis ATCC 8176; assay: MIC broth microdilution (CLSI), M. catarrhalis ATCC 8176; type: cell-based; details: Moraxella catarrhalis, ATCC8176
Procedure: (§1) Minimum Inhibitory Concentrations (MICs) were determined in accordance with the Clinical and Laboratory Standards Institute (CLSI) methodology against aerobic bacteria (CLSI M07-A8) (see Clinical and Laboratory Standards Institute. 2009. Methods for dilution antimicrobial susceptibility tests for bacteria that grow aerobically. CLSI document M07-A8, Vol. 29, No. 2.) by the broth microdilution method with cation-adjusted Mueller-Hinton broth (CA-MHB) medium for the majority of organisms, except for Haemophilus influenza, where Haemophilis test medium (HTM) broth was used. Descriptions of the individual organisms can be found in the table. Where possible, ATCC standard strains were tested.
(§2) The inoculum density for the susceptibility testing was standardized to give a final inoculum of approximately 5×10^5 CFU/mL.
(§3) Stock solutions of the compounds were prepared in DMSO at concentrations of 1 mg/mL. Linezolid was prepared in DMSO at a concentration of 2 mg/mL. Stock solutions of all compounds were diluted into CA-MHB to give a range of two-fold dilutions, depending upon the sensitivity of the organism being tested.

[4] = tested on: H. influenza ATCC 49247; assay: MIC broth microdilution (CLSI), H. influenza ATCC 49247; type: cell-based; details: Haemophilus influenzae, ATCC49247, HTM broth
Procedure: as §1, §2, §3

[5] = In vivo pharmacokinetic and oral bioavailability; details: male Swiss mice; for half-life: read-out: Half life (t1/2) (converted)
Procedure: The in vivo pharmacokinetics and oral bioavailability of the compound of the examples was/is investigated in male Swiss mice (fed) following single intravenous (i.v.) bolus and oral (p.o.) administration. For the i.v. and p.o. solution formulations, the compound was/is dissolved in a 20% HP-β-CD solution. The pH of the formulations was/is around pH 4. All i.v. formulations were isotonic.

[6] = mouse, plasma, iv, i.v. 2.5 mg/kg
[7] = mouse, plasma, po, p.o. 10 mg/kg

| Structure (SMILES) | CC50 at 72 h [1] | IC50 [2] | MIC90 [3] | MIC90 [4] | Vdz ([5]; i.v. 2.5 mg/kg) | AUC(0-inf) [5, 6] | C0 ([5]; mouse, plasma, iv, i.v. 2.5 mg/kg, 20% HP-β-CD solution) | half-life [5, 6] | clearance ([5]; mouse, plasma, iv, i.v. 2.5 mg/kg, read-out: Plasma clearance Cl (converted)) | bioavailability ([5]; mouse, plasma, po, p.o. 10 mg/kg vs i.v. 2.5 mg/kg) | AUC(0-inf) [5, 7] | Tmax [5, 7] | Cmax ([5]; mouse, plasma, po, p.o. 10 mg/kg, 20% HP-β-CD solution) | half-life [5, 7] |
| --- | --- | --- | --- | --- | --- | --- | --- | --- | --- | --- | --- | --- | --- | --- |
| O=C1CCc2cc(/C=C/C(=O)N3CCC=C(c4ccccc4)CC3)cnc2N1 [Co. No. 2] | > 9.38 µg/mL | 884 nM | – | – | – | – | – | – | – | – | – | – | – | – |
| COc1ccc(F)cc1C1=CCCN(C(=O)/C=C/c2cnc3c(c2)CCC(=O)N3)CC1 [Co. No. 27] | > 10.6 µg/mL | 1070 nM | 1 µg/mL (≈ 2.37 µM) | > 8 µg/mL | 1.2 L/kg | 3560 ng·h/mL | 3350 ng/mL | 1.1 h | 12.5 mL/min/kg | 89% | 12600 ng·h/mL | 0.5 h | 4640 ng/mL | 2 h |

From patent publication US9394295B2, “Antibacterial homopiperidinyl substituted 3,4-dihydro-1H-[1,8]naphthyridinones” (Janssen Sciences Ireland UC, priority 2011, dated 2016)
